Data set [1] relates to nutsedge (Cyperus esculentus, CYPES). Nature of the data set: Greenhouse postemergence trial, % visual injury. It is filed as in vivo. The settings on record: Cyperus, post-emergence; 5 g ae/ha alone; 20-22 d; read-out: % visual injury Obs.
Data set [2] relates to wild buckwheat (Polygonum convolvulus, POLCO). Kind of data set: Greenhouse postemergence trial, % visual injury. It is filed as in vivo. The settings on record: 5 g ae/ha alone; 20-22 d.
Data set [3] concerns grain sorghum (Sorghum vulgare, SORVU). Kind of data set: Greenhouse postemergence trial, % visual injury. The format is in vivo. The settings on record: 5 g ae/ha alone; 20-22 d.
For data set [4], the system named is common chickweed (Stellaria media, STEME). Nature of the data set: Greenhouse postemergence trial, % visual injury. Conditions: 5 g ae/ha alone; 20-22 d. It is filed as in vivo.
Data set [5] concerns Canadian thistle (CIRAR, Cirsium arvense). Nature of the data set: Greenhouse postemergence trial, % visual injury. The settings on record: Cirsium arvense, post-emergence, read-out: % visual injury Obs.
Data set [6] deals with spring rape (Brassica napus, BRSNN). Kind of data set: Greenhouse postemergence trial, % visual injury. Conditions: Brassica napus, post-emergence, read-out: % visual injury Obs.
Data set [7] concerns poinsettia (Euphorbia heterophylla, EPHHL). Kind of data set: Greenhouse postemergence trial, % visual injury. Conditions: Euphorbia heterophylla, post-emergence, read-out: % visual injury Obs, 5 g ae/ha alone; 20-22 d.
The subject of data set [8] is wild pansy (Viola tricolor, VIOTR). Kind of data set: Greenhouse postemergence trial, % visual injury. The settings on record: Viola tricolor, post-emergence, read-out: % visual injury Obs.
Another data set concerns winter wheat (TRZAW). Nature of the data set: Greenhouse postemergence trial, crop phytotoxicity (% visual injury). Conditions: crop; 5 g ae/ha alone; 20-22 d.
The subject of the next data set is maize (ZEAMX). The description is as above. Conditions: crop; 5 g ae/ha alone; 20-22 d.
Data set [9] deals with pigweed (AMARE, Amaranthus retroflexus). Kind of data set: Greenhouse postemergence trial, % visual injury. It is filed as in vivo. The settings on record: Amaranthus retroflexus, post-emergence; 5 g ae/ha alone; 20-22 d; read-out: % visual injury Obs.
Data set [10] concerns velvetleaf (Abutilon theophrasti, ABUTH). Nature of the data set: Greenhouse postemergence trial, % visual injury. The format is in vivo. Conditions: 5 g ae/ha alone; 20-22 d.
Data set [11] deals with common lambsquarters (CHEAL, Chenopodium album L.). Kind of data set: Greenhouse postemergence trial, % visual injury. It is filed as in vivo. The settings on record: Chenopodium album, post-emergence; 5 g ae/ha alone; 20-22 d; read-out: % visual injury Obs.
Data set [12] concerns kochia (KCHSC, Kochia scoparia). Nature of the data set: Greenhouse postemergence trial, % visual injury. It is filed as in vivo. Conditions: KCHSC. Here is the method:
Following the protocol in Example 1, compound 1 and compound 2 were combined with 2,4 D EHE (EC) and applied to kochia (KCHSC, Kochia scoparia) and the phytotoxicity of the herbicidal compositions was measured.
Following the protocol in Example 1, compound 1 (EC) and Compound 2 (SC) were combined with diflufenzopyr and applied to kochia (Kochia scoparia, KCHSC) and the phytotoxicity of the herbicidal composition was measured.

This note sets out measurements from patent US9521847B2, “Synergistic weed control from applications of pyridine carboxylic acid herbicides and synthetic auxin herbicides and/or auxin transport inhibitors” (Dow AgroSciences LLC, priority 2014, dated 2016).

Structures are written as SMILES.

In the case of `COc1c(N)nc(-c2ccc3sccc3c2)nc1C(=O)O` [compound 11], the pest or weed control at 5 g/ha in data set [1] was 0%; in data set [5], 5%; in data set [7], 25%; in data set [8], 10%. The “% visual injury Obs” value in data set [2] came to 10%; in data set [3] it was 5%; in [4], 40%; with winter wheat (TRZAW), 10%. The plant injury at 5 g/ha in [6] turned out to be 10%.

Turning to `COC(=O)c1nc(-c2ccc3sccc3c2)c(F)c(N)c1Cl` [compound 9], the pest or weed control at 5 g/ha came to 0% in [1], 10% in data set [5], 60% in [7] and 15% in [8]. Moreover, the “% visual injury Obs” value in data set [2] is given as 25%; in the data set on winter wheat (TRZAW), 0%; in the data set on maize (ZEAMX), 0%. In addition, the plant injury at 5 g/ha in [6] is 10%.

For the compound `COC(=O)c1nc(-c2ccc3scnc3c2)c(F)c(N)c1Cl` [compound 8], the pest or weed control at 5 g/ha worked out at 78% in [9], 30% in data set [5], 84% in [7] and 10% in data set [8]. The “% visual injury Obs” value is on record as 20% in data set [10], 45% in data set [4] and 5% with winter wheat (TRZAW). Also, the plant injury at 5 g/ha in [6] was determined as 63%.

As for `Nc1c(F)c(-c2ccc3ccoc3c2)nc(C(=O)O)c1Cl` [compound 10], the “% visual injury Obs” value is listed as 15% in data set [10]; 10% in [2]; 5% in data set [3]; 70% in data set [4]; 5% with winter wheat (TRZAW). Also, the pest or weed control at 5 g/ha came out at 5% in data set [1], 15% in [5], 75% in [7] and 25% in data set [8]. In addition, the plant injury at 5 g/ha in data set [6] came to 15%.

Consider `COC(=O)c1nc(-c2ccc3cc[nH]c3c2F)c(F)c(/N=C/N(C)C)c1Cl` [compound 13], for which the pest or weed control at 5 g/ha in data set [11] is 60%; in data set [1] it was 0%; in data set [5], 10%; in data set [7], 75%; in [8] it was 25%. Besides, the “% visual injury Obs” value in data set [10] is 0%; in data set [2], 25%; in data set [4] it was 50%.

Take `C/C(=N\NC(=O)Nc1cc(F)cc(F)c1)c1ncccc1C(=O)O` [diflufenzopyr]: the “% visual injury, Obs.” value in data set [12] (diflufenzopyr 3.5 g ae/ha, Table 60) amounted to 0%; in [12] (diflufenzopyr 3.5 g ae/ha, Table 61) it was 0%; in data set [12] (diflufenzopyr 7 g ae/ha, Table 60) it was 0%; in data set [12] (diflufenzopyr 7 g ae/ha, Table 61), 0%.

For the compound `COC(=O)c1nc(-c2ccc3ccoc3c2F)nc(N)c1OC` [compound 12], the pest or weed control at 5 g/ha in data set [11] was 84%; in data set [1], 5%; in data set [5] it was 10%; in [7] it was 35%; in [8], 18%. In addition, the “% visual injury Obs” value is listed as 10% in data set [10], 0% in data set [3], 0% in the data set with winter wheat (TRZAW) and 0% in the data set with maize (ZEAMX). Also, in [6], the plant injury at 5 g/ha stood at 50%.
